Structures are written as SMILES.

As a reminder, the EC50 is the concentration giving half of the maximal effect.

The experiment has as its target T1, human TLR7 (Homo sapiens, UniProt Q9NYK1).
T1 construct: expressed in transfected cells; host or cells: HEK293 (hTLR7/seap-293)
T1 sequence (Q9NYK1 27-1049): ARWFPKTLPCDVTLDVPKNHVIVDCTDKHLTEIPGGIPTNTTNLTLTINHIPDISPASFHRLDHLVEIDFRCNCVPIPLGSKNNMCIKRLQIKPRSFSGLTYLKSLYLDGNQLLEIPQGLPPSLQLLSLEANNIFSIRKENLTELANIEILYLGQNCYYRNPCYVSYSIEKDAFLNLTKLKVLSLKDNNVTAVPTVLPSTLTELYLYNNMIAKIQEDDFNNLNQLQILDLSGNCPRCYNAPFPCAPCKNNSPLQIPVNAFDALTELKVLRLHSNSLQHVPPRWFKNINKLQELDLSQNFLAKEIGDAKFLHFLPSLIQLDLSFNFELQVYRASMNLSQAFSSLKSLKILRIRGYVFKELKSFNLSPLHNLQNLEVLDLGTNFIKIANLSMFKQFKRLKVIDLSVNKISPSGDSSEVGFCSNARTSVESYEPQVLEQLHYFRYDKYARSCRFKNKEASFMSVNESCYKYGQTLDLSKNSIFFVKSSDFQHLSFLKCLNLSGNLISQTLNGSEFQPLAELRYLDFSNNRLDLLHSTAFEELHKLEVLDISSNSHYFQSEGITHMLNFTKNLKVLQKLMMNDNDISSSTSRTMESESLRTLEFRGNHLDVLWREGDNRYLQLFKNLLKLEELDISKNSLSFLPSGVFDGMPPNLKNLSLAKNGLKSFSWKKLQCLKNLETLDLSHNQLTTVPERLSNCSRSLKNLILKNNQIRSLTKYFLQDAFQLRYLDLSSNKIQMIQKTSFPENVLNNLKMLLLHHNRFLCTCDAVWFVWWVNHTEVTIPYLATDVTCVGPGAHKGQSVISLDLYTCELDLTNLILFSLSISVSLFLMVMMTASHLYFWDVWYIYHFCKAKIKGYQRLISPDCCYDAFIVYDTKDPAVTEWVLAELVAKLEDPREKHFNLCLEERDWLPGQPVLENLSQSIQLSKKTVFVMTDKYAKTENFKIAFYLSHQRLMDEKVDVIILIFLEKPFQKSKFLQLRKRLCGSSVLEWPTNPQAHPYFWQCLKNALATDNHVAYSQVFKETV
The experiment is described as follows: Human TLR7 reporter assay (NF-kB-SEAP) in HEK293 cells. It is filed as cell-based. To be noted: HEK293 cells stably introduced with human TLR7 plasmid and NF-kB-SEAP reporter plasmid; cultured 20 hours with compound (1 nM-10 μM); absorbance 405 nm; read-out: Human TLR7 binding activity (EC50). As for the experimental part: Human TLR7 Reporter Assay
HEK293 cells in which human TLR7 or rat TLR7 plasmid and reporter plasmid (NF-kB-SEAP) are stably introduced are dispersed in DMEM broth (10% FBS, 1% NEAA, 10 ug/mL blastocidin S HCl, 100 ug/mL Zeocin), and were seeded to 96 well plate per 90 μl/well (hTLR7/seap-293: 20000 cells/well, rTLR7/seap-293:25000 cells/well).
Test compound (DMSO stock solution (2 μl) was diluted with the broth (200 μl) by 100 times) was added to the seeded cells to a 96 well plate (10 μl/well) (final concentration; 1 nM-10 μM, common ratio). After stirring by tapping side of the plate, the cells were cultured in a CO2 incubator for 20 hours. A substrate (50 μl/well) for reporter assay (substrate for SEAP, pNPP) was added to cells stimulated by test sample. Ten minutes after adding the substrate, the reaction quenching solution (4N NaOH) was added by 50 μl/well to cease enzymatic reaction. Sealing a top seal A on the plate, the absorbance was measured by a micro plate reader (405 nm).
For orientation: A reporter such as luciferase makes a cellular process visible.
Regarding `CCCCOc1nc(N)c2[nH]c(=O)n(CC3CCN(CCCN(C)Cc4cccc(CC(=O)OC)c4)CC3)c2n1` [Example 1, 2-Butoxy-7,8-dihydro-9-{[2-(3-{N-[(3-methoxycarbonylmethylphenyl-1-yl)methyl]-N-methylamino}propyl)piperidin-4-yl]methyl}-8-oxoadenine], the EC50 is 1620 nM.

In the case of `CCCCOc1nc(N)c2[nH]c(=O)n(CC3CCN(CCCNCc4cccc(CC(=O)OC)c4)CC3)c2n1` [Example 2], the EC50 amounted to 1860 nM.

As for `CCCCOc1nc(N)c2[nH]c(=O)n(CCC3CCN(CCOc4cccc(CC(=O)OC)c4)CC3)c2n1` [Example 11, 2-Butoxy-7,8-dihydro-9-(1-{2-[3-(methoxycarbonylmethyl)phenoxy]ethyl}piperidin-4-ylethyl)-8-oxoadenine], the EC50 was 187 nM.

Regarding `CCCCOc1nc(N)c2[nH]c(=O)n(CCC3CCN(CCCN(C)CCOc4cccc(CC(=O)OC)c4)CC3)c2n1` [Example 12, 2-Butoxy-7,8-dihydro-9-{1-[3-([N-methyl-N {2 [3-(methoxycarbonylmethyl)phenoxy]ethyl}]amino)propyl]piperidin-4-ylethyl}-8-oxoadenine], the EC50 was found to be 579 nM.

In the case of `COCCOc1nc(N)c2[nH]c(=O)n(CC3CCN(CC(=O)N(C)CCOc4cccc(CC(=O)OC)c4)CC3)c2n1` [Example 17, 7,8-Dihydro-2-(2-methoxyethoxy)-9-{1-[(N-(2-[3-(methoxylcarbonylmethyl)phenoxy]ethyl}-N-methyl)aminocarbonylmethyl]piperidin-4-ylmethyl}-8-oxoadenine], the EC50 was determined as 5620 nM.

With `CCCCOc1nc(N)c2[nH]c(=O)n(CCC3CCN(C(=O)CN(C)CCOc4cccc(CC(=O)OC)c4)CC3)c2n1` [Example 18, 2-Butoxy-7,8-dihydro-9-(2-{1-[(N-{2-[3-(methoxylcarbonylmethyl)phenoxy]ethyl)-N-methyl)aminocarbonylmethyl]piperidin-4-yl}ethyl)-8-oxoadenine], the EC50 worked out at 281 nM.

Regarding `CCCCOc1nc(N)c2[nH]c(=O)n(CC3CCN(C(=O)CN(C)CCOc4cc(CC(=O)OC)ccc4OC)CC3)c2n1` [Example 19, 2-Butoxy-7,8-dihydro-9-{1-[(N-{2-[2-methoxy-5-(methoxylcarbonylmethyl)phenoxy]ethyl}-N-methyl)aminomethylacarbonyl]piperidin-4-ylmethyl}-8-oxoadenine], the EC50 amounted to 644 nM.

With `CCCCOc1nc(N)c2[nH]c(=O)n(CCCCCN3CCN(CCN(C)Cc4cccc(CC(=O)OC)c4)CC3)c2n1` [Example 20, 2-Butoxy-7,8-dihydro-9-[5-(4-{2-[N-methyl-N-(3-methoxycarbonylmethyl)benzyl]aminomethyl}piperazin-1-yl)pentyl]-8-oxoadenine], the concentration for a half-maximal effect (EC50) worked out at 139 nM.

Turning to `CCCCOc1nc(N)c2[nH]c(=O)n(CCCCCCCN3CCN(CCN(C)Cc4cccc(CC(=O)OC)c4)CC3)c2n1` [Example 21, 2-Butoxy-7,8-dihydro-9-[7-(4-{2-[N-methyl-N-(3-methoxycarbonylmethyl)benzyl]aminomethyl}piperazin-1-yl)heptyl]-8-oxoadenine], the EC50 turned out to be 449 nM.

With `CCCCOc1nc(N)c2[nH]c(=O)n(CCCCCN3CCN(CCOc4cccc(CC(=O)OC)c4)CC3)c2n1` [Example 22], the EC50 was 198 nM.

Take `CCCCOc1nc(N)c2[nH]c(=O)n(CCCCCCCN3CCN(CCOc4cccc(CC(=O)OC)c4)CC3)c2n1` [Example 23, 2-Butoxy-7,8-dihydro-9-(7-{4-[2-(3-methoxycarbonylmethylphenyloxy)ethyl]piperazin-1-yl}heptyl)-8-oxoadenine]: the EC50 was found to be 74.5 nM.

As for `CCCCOc1nc(N)c2[nH]c(=O)n(CCCCN3CCC(Oc4cccc(CC(=O)OC)c4)CC3)c2n1` [Example 29], the EC50 stood at 713 nM.

Values taken from patent US20080269240A1, “Novel Adenine Compound” (priority 2005, published 2008).
